Measured values taken from patent US8680111B2 (Pfizer Inc., priority 2012, dated 2014).

Experiments:
[1] = target: T1, L1196M EML4-ALK (NIH-3T3 EML4-ALK v1 L1196M cells) (Homo sapiens, UniProt Q9UM73, L1196M); assay: Cellular phospho-ALK (Tyr1604) ELISA assay for L1196M EML4-ALK; type: cell-based; settings: NIH-3T3 EML4-ALK v1 L1196M cells, 1 hour, phospho-ALK (Tyr1604); read-out: ELISA assay for L1196M EML4-ALK (IC50)
T1 construct: expressed in transfected cells; the other entry of the earlier key: EML4 (Q9HC35, Echinoderm microtubule-associated protein-like 4)
Method: Cellular Phospho-ALK (Tyr1604) ELISA Assay for EML4-ALK:
The cells were maintained at 37° C. in a 5% CO2 incubator in DMEM (Invitrogen, Carlsbad, Calif.) medium supplemented with 1% L-glutamine, 1% penicillin and streptomycin, 1 ug/ml puromycin and 10% new born calf serum (NCS) in T-75 flasks.
Cells were washed with PBS and re-suspended in DMEM medium supplemented with 0.5% NCS and 1% pen/strep and seeded into 96-well plates at density of 20,000 cells/well/100 μl and incubated in the incubator at 37° C. and 5% CO2. After 20 hours of incubation, 100 μl of assay media (DMEM) in presence of designated PF-compounds concentrations or controls (DMSO) were added into plates and incubated for 1 hour in the incubator. Media was then removed and lysis buffer, containing phosphatase inhibitors and phenylmethanesulfonyl fluoride (PMSF), was added to wells and shaken at 4° C. for 30 minutes to generate protein lysates.
A phospho-ALK (Tyr1604) rabbit antibody was coated onto the 96-well microplates. 50 μl of cell lysates were added to the antibody coated plate and incubated at room temperature for 2 hours. Following extensive washing with 0.1% Tween 20 in PBS to remove unbound materials, ALK mouse mAb was added to detect captured phospho-ALK (Tyr1604) and phospho-ALK fusion proteins. Anti-mouse IgG, HRP-linked antibody was then used to recognize the bound detection antibody. Finally, the chemiluminescent reagent was added and incubated for 10 minutes for signal development. The assay plates were read in the Envision plate reader in the luminescent mode. IC50 values were calculated by a concentration-response curve fitting using a four-parameter analytic method.

[2] = target: T2, WT EML4-ALK (NIH-3T3 EML4-ALK wt v1 cells) (Homo sapiens, UniProt Q9UM73); assay: Cellular phospho-ALK (Tyr1604) ELISA assay for WT EML4-ALK; type: cell-based; settings: 1 hour, read-out: ELISA assay for WT EML4-ALK (IC50)
T2 construct: expressed in transfected cells; the other entry of the earlier key: EML4 (Q9HC35, Echinoderm microtubule-associated protein-like 4)

[3] = target: T3, human recombinant L1196M ALK kinase domain (amino acids 1093-1411) (Homo sapiens, UniProt Q9UM73, L1196M); assay: L1196M mutant ALK enzyme assay (microfluidic mobility shift); type: biochemical; settings: ATP 60 μM, 0.5 nM enzyme, competitive inhibition fit; read-out: L1196M ALK enzyme assay (Ki)
T3 construct: ALK kinase domain (amino acids 1093-1411); made in house

[4] = target: T4, human recombinant wild-type ALK kinase domain (amino acids 1093-1411) (Homo sapiens, UniProt Q9UM73); assay: Wild-type ALK enzyme assay (microfluidic mobility shift); type: biochemical; settings: ATP 60 μM, competitive inhibition fit, read-out: WT ALK enzyme assay (Ki)
T4 construct: ALK kinase domain (amino acids 1093-1411); made in house
Method: The reactions were incubated for 1 h at room temperature, stopped by the addition of 0.1 M EDTA, pH 8, and the extent of reactions (˜15-20% conversion with no inhibitor) was determined after electrophoretic separation of the fluorescently labeled peptide substrate and phosphorylated product on an LabChip EZ Reader II (Caliper Life Sciences, Hopkinton, Mass.).

Row | Structure (SMILES) | IC50 [1] [nM] | IC50 [2] [nM] | Ki [3] [nM] | Ki [4] [nM]
1 | C[C@H]1Oc2cc(cnc2N)-c2cc(S(C)(=O)=O)ccc2CN(C)Cc2ccc(F)cc21 [Example 35, (5R)-3-fluoro-5,17-dimethyl-13-(methylsulfonyl)-5,16,17,18-tetrahydro-7,11-(metheno)dibenzo[g,l][1,4,10]oxadiazacyclotetradecin-8-amine] | 14.3 | 0.98 | 1.1 | < 0.261
2 | C[C@H]1Oc2cc(cnc2N)-c2c(nn(C)c2C#N)CN(C)Cc2ccc(F)cc21 [Example 36, (10R)-7-amino-12-fluoro-2,10,16-trimethyl-10,15,16,17-tetrahydro-2H-4,8-(metheno)pyrazolo[4,3-h][2,5,11]benzoxadiazacyclotetradecine-3-carbonitrile] | 2.64 | 0.18 | 0.56 | < 0.2
3 | Cc1n[nH]c2c1-c1cnc(N)c(c1)OCc1cc(F)ccc1OCCC2 [Example 38, 12-fluoro-3-methyl-1,16,17,18-tetrahydro-10H-8,4-(metheno)pyrazolo[3,4-e][1,12,9]benzodioxazacyclopentadecin-7-amine] | 201 | 12 | 5.7 | 0.61
4 | CN1Cc2nn(C)c(C#N)c2-c2cnc(N)c(n2)OCc2cc(F)ccc2C1=O [Example 46, 7-amino-12-fluoro-2,16-dimethyl-15-oxo-10,15,16,17-tetrahydro-2H-8,4-(azeno)pyrazolo[4,3-h][2,5,11]benzoxadiazacyclotetradecine-3-carbonitrile] | 44.7 | 10.4 | 1.1 | 0.15
5 | CCc1onc2c1-c1cnc(N)c(n1)O[C@H](C)c1cc(F)ccc1C(=O)N(C)C2 [Example 48, (10R)-7-amino-3-ethyl-12-fluoro-10,16-dimethyl-16,17-dihydro-8,4-(azeno)[1,2]oxazolo[4,3-h][2,5,11]benzoxadiazacyclotetradecin-15(10H)-one] | 68.9 | 6.75 | 1.2 | 0.2
6 | CCn1ncc2c1-c1cnc(N)c(n1)O[C@H](C)c1cc(F)ccc1C(=O)N(C)C2 [Example 49, (10R)-7-amino-3-ethyl-12-fluoro-10,16-dimethyl-16,17-dihydro-3H-8,4-(azeno)pyrazolo[3,4-h][2,5,11]benzoxadiazacyclotetradecin-15(10H)-one] | 80.8 | 4.08 | 1.5 | 0.17
7 | C[C@H]1Oc2cc(cnc2N)-c2c(nc3ccccn23)CN(C)C(=O)c2ccc(F)cc21 [Example 50, (5R)-8-amino-3-fluoro-5,19-dimethyl-18,19-dihydro-7,11-(metheno)pyrido-[2′,1′:2,3]imidazo[4,5-h][2,5,11]benzoxadiazacyclotetradecin-20(5H)-one] | 29.7 | 2.37 | 1.2 | 0.14
8 | COc1snc2c1-c1cnc(N)c(n1)O[C@H](C)c1cc(F)ccc1C(=O)N(C)C2 [Example 51, (10R)-7-amino-12-fluoro-3-methoxy-10,16-dimethyl-16,17-dihydro-8,4-(azeno)[1,2]thiazolo[4,3-h][2,5,11]benzoxadiazacyclotetradecin-15(10H)-one] | 6.25 | 0.95 | 0.28 | 0.13
9 | CC1Oc2nc(cnc2N)-c2c(C#N)nn3c2C(CC3)N(C)C(=O)c2ccc(F)cc21 [Example 74, (9R)-6-amino-11-fluoro-9,15-dimethyl-14-oxo-9,14,15,15a,16,17-hexahydro-7,3-(azeno)-8-oxa-1,5,15,17a-tetraazabenzo[11,12]cyclotetradeca[1,2,3-cd]pentalene-2-carbonitrile] | 51.9 | 11.4 | 0.86 | 0.3
10 | CC1Oc2nc(cnc2N)-c2c(C#N)nn3c2C(CC3)N(C)C(=O)c2ccc(F)cc21 [Example 75, (9R)-6-amino-11-fluoro-9,15-dimethyl-14-oxo-9,14,15,15a,16,17-hexahydro-7,3-(azeno)-8-oxa-1,5,15,17a-tetraazabenzo[11,12]cyclotetradeca[1,2,3-cd]pentalene-2-carbonitrile] | 7.06 | 0.902 | 0.095 | 0.065
11 | CC1c2nn(C)c(C#N)c2-c2cnc(N)c(n2)OCc2cc(F)ccc2C(=O)N1C (stereo not shown) [Example 78, 7-amino-12-fluoro-2,16,17-trimethyl-15-oxo-10,15,16,17-tetrahydro-2H-8,4-(azeno)pyrazolo[4,3-h][2,5,11]benzoxadiazacyclotetradecine-3-carbonitrile] | 350 | 40.8 | 9.61 | 2.93
12 | C[C@H]1Oc2nc(cnc2N)-c2c(nn(CC(F)F)c2C#N)CN(C)C(=O)c2ccc(F)cc21 [Example 91, (10R)-7-amino-2-(2,2-difluoroethyl)-12-fluoro-10,16-dimethyl-15-oxo-10,15,16,17-tetrahydro-2H-8,4-(azeno)pyrazolo[4,3-h][2,5,11]benzoxadiazacyclotetradecine-3-carbonitrile] | 5.88 | 0.68 | 0.315 | 0.177
13 | CC(C)n1nc2c(c1C#N)-c1cnc(N)c(n1)O[C@H](C)c1cc(F)ccc1C(=O)N(C)C2 [Example 92, (10R)-7-amino-12-fluoro-10,16-dimethyl-15-oxo-2-(propan-2-yl)-10,15,16,17-tetrahydro-2H-8,4-(azeno)pyrazolo[4,3-h][2,5,11]benzoxadiazacyclotetradecine-3-carbonitrile] | 3.66 | 0.47 | 0.21 | 0.23
14 | C[C@H]1Oc2nc(cnc2N)-c2c(nn(C3COC3)c2C#N)CN(C)C(=O)c2ccc(F)cc21 [Example 93, (10R)-7-amino-12-fluoro-10,16-di methyl-2-(oxetan-3-yl)-15-oxo-10,15,16,17-tetrahydro-2H-8,4-(azeno) pyrazolo[4,3-h][2,5,11]benzoxadiazacyclotetradecine-3-carbonitrile] | 31.7 | 3.23 | 0.3 | 0.048

The next lines start with the values.

Row | IC50 [1] [nM] | IC50 [2] [nM] | Ki [3] [nM] | Ki [4] [nM] | Structure (SMILES)
15 | 890 | 36.1 | 15 | 0.56 | COc1nccc2c1-c1cnc(N)c(c1)O[C@H](C)c1cc(F)ccc1C(=O)N(C)C2 [Example 34, (11R)-8-amino-13-fluoro-4-methoxy-11,17-dimethyl-17,18-dihydro-9,5-(metheno)pyrido[3,4-h][2,5,11]benzoxadiazacyclotetradecin-16(11H)-one]
16 | 680 | 33.1 | 19 | 1.5 | CCCn1nnc2c1-c1cnc(N)c(c1)O[C@H](C)c1cc(F)ccc1C(=O)N(C)C2 [Example 41, (10R)-7-amino-12-fluoro-10,16-dimethyl-3-propyl-16,17-dihydro-3H-8,4-(metheno)[1,2,3]triazolo[4,5-h][2,5,11]benzoxadiazacyclotetradecin-15(10H)-one]
17 | 13.4 | 1.03 | 0.24 | < 0.07 | C[C@H]1Oc2cc(cnc2N)-c2c(nn(C)c2C#N)CN(C2CC2)C(=O)c2ccc(F)cc21 [Example 55, (10R)-7-amino-16-cyclopropyl-12-fluoro-2,10-dimethyl-15-oxo-10,15,16,17-tetrahydro-2H-8,4-(metheno)pyrazolo[4,3-h][2,5,11]benzoxadiazacyclotetradecine-3-carbonitrile]
18 | 17.1 | 4.82 | 0.17 | 0.15 | CC1Cc2cc(cnc2N)-c2c(nn(C)c2C#N)CN(C)C(=O)c2ccc(F)cc21 (stereo not shown) [Example 61, 7-amino-12-fluoro-2,10,16-trimethyl-15-oxo-2,9,10,15,16,17-hexahydro-8,4-(metheno)pyrazolo[3,4-d][2,8]benzodiazacyclotetradecine-3-carbonitrile]
19 | > 10000 | 7610 | 253 | 137 | CC1Cc2cc(cnc2N)-c2c(nn(C)c2C(N)=O)CN(C)C(=O)c2ccc(F)cc21 (stereo not shown) [Example 62, 7-amino-12-fluoro-2,10,16-trimethyl-15-oxo-2,9,10,15,16,17-hexahydro-8,4-(metheno)pyrazolo[3,4-d][2,8]benzodiazacyclotetradecine-3-carboxamide]
20 | 447 | 9.99 | 7.3 | 0.56 | CCc1snc2c1-c1cnc(N)c(c1)O[C@H](C)c1cc(F)ccc1C(=O)N(C)C2 [Example 110, (10R)-7-amino-3-ethyl-12-fluoro-10,16-dimethyl-16,17-dihydro-8,4-(metheno)[1,2]thiazolo[4,3-h][2,5,11]benzoxadiazacyclotetradecin-15(10H)-one]
21 | 32.5 | 1.42 | 0.54 | 0.059 | COc1noc2c1-c1cnc(N)c(c1)O[C@H](C)c1cc(F)ccc1C(=O)N(C)C2 [Example 111, (10R)-7-amino-12-fluoro-3-methoxy-10,16-dimethyl-16,17-dihydro-8,4-(metheno)[1,2]oxazolo[4,5-h][2,5,11]benzoxadiazacyclotetradecin-15(10H)-one]
22 | 248 | 9.67 | 3.4 | 0.32 | CCc1nsc2c1-c1cnc(N)c(c1)O[C@H](C)c1cc(F)ccc1C(=O)N(C)C2 [Example 112, (10R)-7-amino-3-ethyl-12-fluoro-10,16-dimethyl-16,17-dihydro-8,4-(metheno)[1,2]thiazolo[4,5-h][2,5,11]benzoxadiazacyclotetradecin-15(10H)-one]
